Columns and labels:
[1] = target: T1, Recombinant human cathepsin A (Homo sapiens, UniProt P10619); test: Cathepsin A inhibitory activity; assay type: biochemical; conditions: activated recombinant human cathepsin A 833 ng/ml, Bodipy FL-labeled bradykinin 2 μM, pH 5.5, 15 min room temperature
T1 construct: Recombinant human cathepsin A (residues 29-480, with a C-terminal 10-His tag); 10-His (C); purchased R&D Systems 1049-SE
T1 sequence (P10619 29-326 limits assumed): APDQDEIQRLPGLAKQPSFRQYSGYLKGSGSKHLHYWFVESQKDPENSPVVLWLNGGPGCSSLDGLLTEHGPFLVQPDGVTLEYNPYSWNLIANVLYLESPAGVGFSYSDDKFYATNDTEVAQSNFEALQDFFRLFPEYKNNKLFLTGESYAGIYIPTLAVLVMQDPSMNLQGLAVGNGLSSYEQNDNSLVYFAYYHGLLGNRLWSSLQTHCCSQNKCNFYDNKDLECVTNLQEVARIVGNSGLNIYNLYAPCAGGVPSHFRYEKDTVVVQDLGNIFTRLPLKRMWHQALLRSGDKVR
T1 sequence (P10619 327-480 limits assumed): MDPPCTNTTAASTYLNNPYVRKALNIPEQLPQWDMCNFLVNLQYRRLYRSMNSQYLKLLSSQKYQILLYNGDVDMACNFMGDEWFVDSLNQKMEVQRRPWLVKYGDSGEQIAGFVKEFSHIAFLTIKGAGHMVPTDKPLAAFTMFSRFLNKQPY
Method: a) Cathepsin a Inhibitory Activity
Recombinant human cathepsin A (residues 29-480, with a C-terminal 10-His tag; R&D Systems, #1049-SE) was proteolytically activated with recombinant human cathepsin L (R&D Systems, #952-CY). Briefly, cathepsin A was incubated at 10 μg/ml with cathepsin L at 1 μg/ml in activation buffer (25 mM 2-(morpholin-4-yl)-ethanesulfonic acid (MES), pH 6.0, containing 5 mM dithiothreitol (DTT)) for 15 min at 37° C. Cathepsin L activity was then stopped by the addition of the cysteine protease inhibitor E-64 (N-(trans-epoxysuccinyl)-L-leucine-4-guanidinobutylamide; Sigma-Aldrich, #E3132; dissolved in activation buffer/DMSO) to a final concentration of 10 μM.
The activated cathepsin A was diluted in assay buffer (25 mM MES, pH 5.5, containing 5 mM DTT) and mixed with the test compound (dissolved in assay buffer containing (v/v) 3% DMSO) or, in the control experiments, with the vehicle in a multiple assay plate. After incubation for 15 min at room temperature, as substrate then bradykinin carrying an N-Terminal®Bodipy FL (4,4-difluoro-5,7-dimethyl-4-bora-3a,4a-diaza-s-indacene-3-propionyl) label (JPT Peptide Technologies GmbH; dissolved in assay buffer) was added to the mixture. The final concentration of cathepsin A was 833 ng/ml and the final concentration of labeled bradykinin 2 μM. After incubation for 15 min at room temperature the reaction was stopped by the addition of stop buffer (130 mM 2-(4-(2-hydroxy-ethyl)-piperazin-1-yl)-ethanesulfonic acid, pH 7.4, containing (v/v) 0.013%®Triton X-100, 0.13% Coating Reagent 3 (Caliper Life Sciences), 6.5% DMSO and 20 μM ebelactone B (Sigma, #E0886)).
Uncleaved substrate and product were then separated by a microfluidic capillary electrophoresis on a LabChip® 3000 Drug Discovery System (12-Sipper-Chip; Caliper Life Sciences) and quantified by determination of the respective peak areas. Substrate turnover was calculated by dividing product peak area by the sum of substrate and product peak areas, and the enzyme activity and the inhibitory effect of the test compound thus quantified. From the percentage of inhibition of cathepsin A activity observed with the test compound at several concentrations, the inhibitory concentration IC50, i.e. the concentration which effects 50% inhibition of enzyme activity was, calculated.

[2] = test system: platelet aggregation; conditions: hypertensive animals; H. Ostrowska et al., J. Cardiovasc. Pharmacol. 45 (2005); cited from earlier work

| Compound | IC50 [1] [nM] | platelet aggregation [2] |
| --- | --- | --- |
| Nc1cc(C(=O)NC(CC(=O)O)c2ccc(-c3ccc(F)cc3)cc2)nn1-c1ccccc1 (centres unmarked) [Example 2, 3-[(5-Amino-1-phenyl-1H-pyrazole-3-carbonyl)-amino]-3-(4′-fluoro-biphenyl-4-yl)-propionic acid] | 53.2 |  |
| O=C(O)C[C@H](NC(=O)c1cc2[nH]c3ccccc3n2n1)c1ccccc1 [Example 41, (S)-3-[(4H-Benzo[4,5]imidazo[1,2-b]pyrazole-2-carbonyl)-amino]-3-phenyl-propionic acid] | 1230 |  |
| O=C(O)CC(NC(=O)c1cc2[nH]c3ccccc3n2n1)c1ccc(F)c(F)c1 (centres unmarked) [Example 20, 3-[(4H-Benzo[4,5]imidazo[1,2-b]pyrazole-2-carbonyl)-amino]-3-(3,4-difluoro-phenyl)-propionic acid] | 3280 |  |
| O=C(O)C[C@H](NC(=O)c1cc2[nH]c3ccccc3n2n1)c1ccccc1F [Example 40, (S)-3-[(4H-Benzo[4,5]imidazo[1,2-b]pyrazole-2-carbonyl)-amino]-3-(2-fluoro-phenyl)-propionic acid] | 1170 |  |
| CC[C@@H](C)[C@@H](O)[C@H](C)C(=O)[C@H](C)/C=C(\C)C[C@H](C)[C@@H]1OC(=O)[C@H]1CC [ebelactone B] |  | suppresses platelet aggregation |
| O=C(O)CC(NC(=O)c1cc2[nH]c3ccccc3n2n1)c1cccc(Oc2ccccc2)c1 (centres unmarked) [Example 26, 3-[(4H-Benzo[4,5]imidazo[1,2-b]pyrazole-2-carbonyl)-amino]-3-(3-phenoxy-phenyl)-propionic acid] | 2610 |  |
| Cc1ccccc1[C@H](CC(=O)O)NC(=O)c1cc(NS(C)(=O)=O)n(-c2ccccc2)n1 [Example 11, (S)-3-[(5-Methanesulfonylamino-1-phenyl-1H-pyrazole-3-carbonyl)-amino]-3-o-tolyl-propionic acid] | 25.2 |  |
| Cc1ccccc1[C@H](CC(=O)O)NC(=O)c1cc(N2CCCC2)n(-c2ccccc2)n1 [Example 6, (S)-3-[(1-Phenyl-5-pyrrolidin-1-yl-1H-pyrazole-3-carbonyl)-amino]-3-o-tolyl-propionic acid] | 15.6 |  |
| Cc1ccccc1[C@H](CC(=O)O)NC(=O)c1cc(N(C)C(=O)c2ccccc2)n(-c2ccccc2)n1 [Example 63, (S)-3-{[5-(Benzoyl-methyl-amino)-1-phenyl-1H-pyrazole-3-carbonyl]-amino}-3-o-tolyl-propionic acid] | 57.2 |  |
| N#Cc1ccc(C(CC(=O)O)NC(=O)c2cc3[nH]c4ccccc4n3n2)cc1 (centres unmarked) [Example 21, 3-[(4H-Benzo[4,5]imidazo[1,2-b]pyrazole-2-carbonyl)-amino]-3-(4-cyano-phenyl)-propionic acid] | 2390 |  |
| Cc1cccc([C@H](CC(=O)O)NC(=O)c2cc3[nH]c4ccccc4n3n2)c1 [Example 39, (S)-3-[(4H-Benzo[4,5]imidazo[1,2-b]pyrazole-2-carbonyl)-amino]-3-m-tolyl-propionic acid] | 940 |  |
| Cc1ccccc1[C@H](CC(=O)O)NC(=O)c1cc(N(C)C(=O)C(C)(C)C)n(-c2ccccc2)n1 [Example 55, (S)-3-({5-[(2,2-Dimethyl-propionyl)-methyl-amino]-1-phenyl-1H-pyrazole-3-carbonyl}-amino)-3-o-tolyl-propionic acid] | 17.5 |  |

Continued, in another order:

| IC50 [1] [nM] | Compound | platelet aggregation [2] |
| --- | --- | --- |
| 78.6 | O=C(O)CC(NC(=O)c1cc(NC(=O)c2ccccc2)n(-c2ccccc2)n1)C1CCCCC1 (centres unmarked) [Example 74, 3-[(5-Benzoylamino-1-phenyl-1H-pyrazole-3-carbonyl)-amino]-3-cyclohexyl-propionic acid] |  |
| 108 | Cc1ccc([C@H](CC(=O)O)NC(=O)c2cc(NC(=O)c3ccccc3)n(-c3ccccc3)n2)c(C)c1 [Example 79, (S)-3-[(5-Benzoylamino-1-phenyl-1H-pyrazole-3-carbonyl)-amino]-3-(2,4-dimethyl-phenyl)-propionic acid] |  |
| 22000 | CC(C)C[C@@H](CC(=O)O)NC(=O)c1cc(NC(=O)c2ccccc2)n(-c2ccccc2)n1 [Example 76, (S)-3-[(5-Benzoylamino-1-phenyl-1H-pyrazole-3-carbonyl)-amino]-5-methyl-hexanoic acid] |  |
| 80.2 | CCNc1cc(C(=O)N[C@@H](CC(=O)O)c2ccccc2C)nn1-c1ccccc1 [Example 85, (S)-3-[(5-Ethylamino-1-phenyl-1H-pyrazole-3-carbonyl)-amino]-3-o-tolyl-propionic acid] |  |
| 30.1 | Cc1ccccc1[C@H](CC(=O)O)NC(=O)c1cc(NC(=O)c2ccccc2)n(-c2ccccc2)n1 [Example 66, (S)-3-[(5-Benzoylamino-1-phenyl-1H-pyrazole-3-carbonyl)-amino]-3-o-tolyl-propionic acid] |  |
